Data on nine molecules can be found in patent US10513694B2, “Thienopyrrole compounds and uses thereof” (PROMEGA CORPORATION, priority 2015, dated 2019).

Entries after “also recorded” stand apart in the source; their conditions may differ.

One assay addresses Nluc luciferase (Oplophorus gracilirostris, UniProt Q9GV45, A31E/A60N/A81I/F95D/I117V/K70R/L54V/L99Q/M102K/N193R/P142E/Q151K/Q38R/Q45L/V71I/Y165I). As to the kind of experiment: Inhibition of purified Nluc, dose and time dependence. It counts as biochemical. Conditions: pro-substrate PBI-4442, DTT, TERGITOL, RT, various time points. The protocol: A solution of purified Nluc and an Nluc pro-substrate (PBI-4442, which is described in US 2013/0130289), which is converted to an Nluc substrate upon reduction with DTT, were prepared in PBS buffer, pH 7.5. A 40 mM solution of DTT in PBS, pH 7.5 containing 1% TERGITOL was also prepared. Titrations of the thienopyrrole compounds JRW-0004, WZ141-88, WZ141-86, WZ141-74, WZ141-84, WZ141-89, WZ141-90, and WZ141-91 in the buffer containing DTT and TERGITOL were then prepared. An equal volume of the Nluc/pro-substrate solution was added to the thienopyrrole compound titrations in wells of an assay plate. The reactions were incubated at RT, and luminescence was measured at various time points on the Tecan M100 Pro plate reader (integration time 200 ms). IC50 values were determined using GraphPad Prism 6.03.

For another assay, the target named is NANOLUC® enzyme (Oplophorus gracilirostris, UniProt Q9GV45, A31E/A60N/A81I/F95D/I117V/K70R/L54V/L99Q/M102K/N193R/P142E/Q151K/Q38R/Q45L/V71I/Y165I). The assay can be described thus: Inhibitor IC50 determination (NANOLUC enzyme, furimazine). It counts as biochemical. The following applies: IC50 (uM), 0.4 ng/ml NANOLUC enzyme, final furimazine 10 uM (at Km). The protocol:
The following example provides the IC50 values for the compounds disclosed herein. See Table 5 NANOLUC® enzyme was diluted to 0.4 ng/ml in CO2 independent media+10% FBS to make the detection reagent. A 3× dilution series of each inhibitor was then made in the detection reagent. A “no inhibitor” control was also made for each sample. 50 ul of each inhibitor dilution was mixed with 50 ul of NanoGlo buffer containing 20 uM furimazine. (Final furimazine concentration is 10 uM which is at Km.), and luminescence measured. Each sample was normalized to the “no inhibitor” control. The […] values were then determined using GraphPad Prism (log [inhibitor] vs. normalized response).

The target in the next assay is Nluc (Oplophorus gracilirostris, UniProt Q9GV45, A31E/A60N/A81I/F95D/I117V/K70R/L54V/L99Q/M102K/N193R/P142E/Q151K/Q38R/Q45L/V71I/Y165I). The assay can be described thus: Specificity of inhibition of Nluc luciferase: Nluc. It counts as biochemical.
Another assay concerns UltraGlo luciferase. As to the kind of experiment: Specificity of inhibition of Nluc luciferase: UltraGlo luciferase. It counts as biochemical, firefly. The following applies: RT 2 hrs. The procedure: (§1) The following example describes the specificity of disclosed thienopyrrole compounds, JRW-0251, JRW-0344, and JRW-0147, to inhibit Nluc luciferase activity versus firefly luciferase activity, e.g., ULTRAGLO® luciferase. In a Corning 3570 assay plate, a solution containing 1 μM luciferin in Luciferase Detection Reagent (Promega Corporation V865/859) was added to the assay wells. An equal volume of titrations the thienopyrrole compounds, JRW-0251, JRW-0344, and JRW-0147 were then added to the wells. The reactions were incubated at RT for 2 hrs, and luminescence was measured on Tecan M1000 Pro plate reader.

The target of a further assay is T1, purified Nluc enzyme (Oplophorus gracilirostris, UniProt Q9GV45, A31E/A60N/A81I/F95D/I117V/K70R/L54V/L99Q/M102K/N193R/P142E/Q151K/Q38R/Q45L/V71I/Y165I).
T1 construct: purchased Promega Corporation
It counts as biochemical. Conditions: titration up to 100 μM final; RT 2 hrs; pro-substrate PBI-4442 + DTT. The procedure:
In a Corning 3570 assay plate, purified Nluc enzyme (Promega Corporation), 20 mM DTT, and an Nluc pro-substrate (PBI-4442, which is described in US Patent Publication No. 2013/0130289), which is converted to an Nluc substrate upon reduction with DTT, was added. Compound titrations of JRW-0004, JRW-0013, JRW-0006, JRW-0042, JRW-0138, and JRW-0147 were then made (1:2 serial dilution in PBS, 11 points plus no inhibitor control, starting at 200 μM; 100 μM final concentration in reaction). Compound titrations were added in equal volume to the wells of the assay plate. The reactions were incubated at RT for 2 hrs, and luminescence was measured on Tecan M1000 Pro plate reader. Half-maximal inhibitor (thienopyrrole compound) concentrations (IC50s) were determined using GraphPad Prism 6.03.

Assay [1] has as its system firefly luciferase, e.g., ULTRAGLO® luciferase. The assay can be described thus: Specificity of inhibition: firefly luciferase activity. It counts as biochemical. The following applies: 1 μM luciferin in Luciferase Detection Reagent; RT 2 hrs. The procedure:
as §1, with “JRW-0004, JRW-0013, JRW-0006, JRW-0042, JRW-0138,” for “JRW-0251, JRW-0344,”

Chain of NANOLUC® enzyme (Q9GV45 28-196 with tags or gaps with the stated changes limits assumed): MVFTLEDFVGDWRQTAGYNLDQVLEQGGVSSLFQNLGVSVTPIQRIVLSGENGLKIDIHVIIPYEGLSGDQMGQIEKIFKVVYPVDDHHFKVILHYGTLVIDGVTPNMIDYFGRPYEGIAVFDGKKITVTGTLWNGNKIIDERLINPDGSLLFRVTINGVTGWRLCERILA
Chain of Nluc luciferase (Q9GV45 28-196 with tags or gaps with the stated changes limits assumed): as above
Chain of Nluc (Q9GV45 28-196 with tags or gaps with the stated changes limits assumed): as above
T1 sequence (Q9GV45 28-196 with tags or gaps with the stated changes limits assumed): as above

As to `CCN(C(=O)Cn1c(C(=O)N2CCN(C)CC2)cc2sccc21)c1cccc(C)c1` [WZ-141-91, N-ethyl-2-(5-(4-methylpiperazine-1-carbonyl)-4H-thieno[3,2-b]pyrrol-4-yl)-N-(m-tolyl)acetamide], at Nluc luciferase, the “Inhibition of Nluc luciferase, dose and time dependence (FIGS. 4-6)” value (from here on “Inhibition of Nluc luciferase”) was “inhibit Nluc luciferase in a dose- and time-dependent manner”.

The IC50 is the concentration that inhibits the measured activity by half. Read a high IC50 as a need for much substance. `CCN(C(=O)Cn1c(C(=O)N[C@H]2CC[C@H](C(=O)NCCCCCCNC(=O)[C@H](CC(=O)O)NC(=O)[C@H](CC(=O)O)NC(=O)[C@H](CC(=O)O)NC(C)=O)CC2)cc2sccc21)c1cccc(C)c1` [JRW-0251, (11S,14S,17S)-17-acetamido-11,14-bis(carboxymethyl)-1-(trans-4-(4-(2-(ethyl(m-tolyl)amino)-2-oxoethyl)-4H-thieno[3,2-b]pyrrole-5-carboxamido)cyclohexyl)-1,10,13,16-tetraoxo-2,9,12,15-tetraazanonadecan-19-oic acid] came in with an IC50 against NANOLUC® enzyme of 0.077 µM. The “Nluc, Avg (luminescence)” value on Nluc ([cmpd] 0.1953125 μM) is on record as 108634; at Nluc ([cmpd] 0.390625 μM), 106075; at Nluc ([cmpd] 0.78125 μM), 105881; at Nluc ([cmpd] 1.5625 μM), 96602; at Nluc ([cmpd] 3.125 μM) it was 86555; on Nluc ([cmpd] 6.25 μM) it was 81193. In addition, the “Nluc, Avg (luminescence)” value on Nluc ([cmpd] 12.5 μM) came out at 68664; on Nluc ([cmpd] 25 μM), 55210; on Nluc ([cmpd] 50 μM), 44219; on Nluc ([cmpd] 100 μM) it was 34389; at Nluc ([cmpd] 200 μM) it was 23311. The “Nluc, S/B” value at Nluc ([cmpd] 0.1953125 μM) turned out to be 0.95; on Nluc ([cmpd] 0.390625 μM), 0.93; on Nluc ([cmpd] 0.78125 μM), 0.92; at Nluc ([cmpd] 1.5625 μM), 0.84; at Nluc ([cmpd] 3.125 μM), 0.76; on Nluc ([cmpd] 6.25 μM) it was 0.71. The “Nluc, S/B” value on Nluc ([cmpd] 12.5 μM) is given as 0.60; at Nluc ([cmpd] 25 μM) it was 0.48; on Nluc ([cmpd] 50 μM), 0.39; at Nluc ([cmpd] 100 μM), 0.30; at Nluc ([cmpd] 200 μM) it was 0.20. The “Inhibition of firefly luciferase activity (Table 3)” value in the assay with UltraGlo luciferase is “did not inhibit the firefly luciferase activity”. The “UltraGlo luciferase, Avg (luminescence)” value in the assay with UltraGlo luciferase ([cmpd] 0.1953125 μM) was 83059; in the assay on UltraGlo luciferase ([cmpd] 0.390625 μM) it was 82723; in the assay on UltraGlo luciferase ([cmpd] 0.78125 μM) it was 82812; with UltraGlo luciferase ([cmpd] 1.5625 μM), 82370; in the assay on UltraGlo luciferase ([cmpd] 3.125 μM), 81125; in the assay on UltraGlo luciferase ([cmpd] 6.25 μM) it was 83665. The “UltraGlo luciferase, Avg (luminescence)” value in the assay on UltraGlo luciferase ([cmpd] 12.5 μM) worked out at 83569; in the assay with UltraGlo luciferase ([cmpd] 25 μM), 83382; with UltraGlo luciferase ([cmpd] 50 μM), 81930; in the assay on UltraGlo luciferase ([cmpd] 100 μM), 79556; with UltraGlo luciferase ([cmpd] 200 μM), 77788. The “UltraGlo luciferase, S/B” value stood at 0.98 in the assay with UltraGlo luciferase ([cmpd] 0.1953125 μM); 0.98 with UltraGlo luciferase ([cmpd] 0.390625 μM); 0.98 with UltraGlo luciferase ([cmpd] 0.78125 μM); 0.98 in the assay with UltraGlo luciferase ([cmpd] 1.5625 μM); 0.96 with UltraGlo luciferase ([cmpd] 3.125 μM); 0.99 in the assay on UltraGlo luciferase ([cmpd] 6.25 μM). Further, the “UltraGlo luciferase, S/B” value amounted to 0.99 with UltraGlo luciferase ([cmpd] 12.5 μM); 0.99 in the assay on UltraGlo luciferase ([cmpd] 25 μM); 0.97 in the assay on UltraGlo luciferase ([cmpd] 50 μM); 0.94 in the assay on UltraGlo luciferase ([cmpd] 100 μM); 0.92 with UltraGlo luciferase ([cmpd] 200 μM).

On NANOLUC® enzyme, `CCN(C(=O)Cn1c(C(=O)NC)cc2sccc21)c1cccc(C)c1` [WZ-141-84, 4-(2-(ethyl(m-tolyl)amino)-2-oxoethyl)-N-methyl-4H-thieno[3,2-b]pyrrole-5-carboxamide] had an IC50 of 5.5 µM. Moreover, the “Inhibition of Nluc luciferase” value on Nluc luciferase is “inhibit Nluc luciferase in a dose- and time-dependent manner”.

Regarding `CCN(C(=O)Cn1c(C(=O)NCCCN2CCOCC2)cc2sccc21)c1cccc(C)c1` [WZ-141-90, 4-(2-(ethyl(m-tolyl)amino)-2-oxoethyl)-N-(3-morpholinopropyl)-4H-thieno[3,2-b]pyrrole-5-carboxamide], the “Inhibition of Nluc luciferase” value at Nluc luciferase was “inhibit Nluc luciferase in a dose- and time-dependent manner”.

Turning to `CCN(C(=O)Cn1c(C(=O)NC2CCCC2)cc2sccc21)c1cccc(C)c1` [WZ-141-88, N-cyclopentyl-4-(2-(ethyl(m-tolyl)amino)-2-oxoethyl)-4H-thieno[3,2-b]pyrrole-5-carboxamide], at NANOLUC® enzyme, half-maximal inhibition (IC50) was put at 0.54 µM. In addition, the “Inhibition of Nluc luciferase” value on Nluc luciferase was “inhibit Nluc luciferase in a dose- and time-dependent manner”.

For the molecule `CCN(C(=O)Cn1c(C(=O)O)cc2sccc21)c1cccc(C)c1` [WZ-141-74, 4-(2-(ethyl(m-tolyl)amino)-2-oxoethyl)-4H-thieno[3,2-b]pyrrole-5-carboxylic acid], at NANOLUC® enzyme, the IC50 was determined as 16.4 µM. Moreover, the “Inhibition of Nluc luciferase” value on Nluc luciferase is “inhibit Nluc luciferase in a dose- and time-dependent manner”.

Regarding `COC(=O)c1cc2sccc2n1CC(=O)N(Cc1ccccc1)c1cccc(C)c1` [WZ-141-86, methyl 4-(2-(benzyl(m-tolyl)amino)-2-oxoethyl)-4H-thieno[3,2-b]pyrrole-5-carboxylate], the “Inhibition of Nluc luciferase” value at Nluc luciferase is “inhibit Nluc luciferase in a dose- and time-dependent manner”.

On NANOLUC® enzyme, `CCN(C(=O)Cn1c(C(=O)NC2CCCCC2)cc2sccc21)c1cccc(C)c1` [JRW-0006, N-cyclohexyl-4-(2-(ethyl(m-tolyl)amino)-2-oxoethyl)-4H-thieno[3,2-b]pyrrole-5-carboxamide] gave an IC50 of 0.26 µM. Besides, the “Inhibition of purified Nluc enzyme (FIG. 2)” value on purified Nluc enzyme is given as “capable of inhibiting purified Nluc enzyme”. Besides, the “Inhibition of firefly luciferase activity (FIG. 3)” value in assay [1] is reported as “do not inhibit firefly luciferase activity; also recorded: did not inhibit the firefly luciferase activity”.

Take `CCN(C(=O)Cn1c(C(=O)NCc2ccncc2)cc2sccc21)c1cccc(C)c1` [WZ-141-89, 4-(2-(ethyl(m-tolyl)amino)-2-oxoethyl)-N-(pyridin-4-ylmethyl)-4H-thieno[3,2-b]pyrrole-5-carboxamide]: the “Inhibition of Nluc luciferase” value at Nluc luciferase is “inhibit Nluc luciferase in a dose- and time-dependent manner”.
